Key:
Type in all cases: cell-based
Kv7.1/KCNE1 = target: T1, Kv7.1/KCNE1 (Homo sapiens, UniProt P51787); experiment: Two-electrode voltage clamp of Kv7.1/KCNE1 expressed in Xenopus oocytes; set-up: Fitted slope factor of conductance vs voltage relationship: unit of the concentration uncertain; details: for IKs I/I0: relative current at 0 mV
T1 construct: cRNA encoding Kv7.1 (UniProt: P51787), KCNE1 (UniProt: P15382.1); expressed in transfected cells; host or cells: Xenopus laevis oocytes (cRNA injection, Kv7.1:KCNE1 3:1 by weight)
Protocol: (§1) Molecular Biology cRNA encoding Kv7.1 (UniProt: P51787), KCNE1 (UniProt: P15382.1), Nav1.5 (UniProt: Q14524.1), Nav β1 (UniProt: […]), Nav β3 (UniProt: […]), Cav1.2 (GenBank: CAA84346), Cav β3 (Uniprot: P54286), Cav β2 (Uniprot: P54288), and Cav α2δ (Uniprot: P13806) were transcribed using the mMessage mMachine T7 kit (Ambion). 50 ng of cRNA was injected into defolliculated Xenopus laevis oocytes (Ecocyte, Austin, TX): For Kv7.1/KCNE1 channel expression, we injected a 3:1, weight:weight (Kv7.1:KCNE1) cRNA ratio. For Nav1.5 channel expression, we injected a 2:1, weight:weight (Nav1.5:β1) cRNA ratio. For Cav1.2 channel expression, we injected a 2:1:1, weight:weight (Cav1.2:β3:α2δ) cRNA ratio. The exact stoichiometry for channel macromolecular complexes, including α -subunits and auxiliary subunits is not clear for many ion channels. For example, there have been multiple reported stoichiometries for Kv7.1:KCNE1 determined in heterologous expression systems with some groups reporting flexible stoichiometry of 4 Kv7.1: 1–4 KCNE1 and others reporting a fixed stoichiometry of 4 Kv7.1: 2 KCNE1 ([Murray et al., 2016]; [Nakajo et al., 2010]). The ratios of cRNA of α- and auxiliary subunits that we injected in Xenopus laevis oocytes are such that all α-subunits are assumed to be in complex with auxiliary subunits. This allows a more homogenous population of ion channels with auxiliary subunits. One caveat to expressing ion channels as macromolecular complexes is that there are many other auxiliary subunits that could associate with the channel α -subunit that are present in cardiomyocytes and have the potential to alter PUFA-induced effects, but that are not being co-expressed in our experiments. In this work, we are co-expressing some of the auxiliary subunits that have been primarily reported to associate with their respective α -subunits in cardiomyocytes. Following cRNA injection, cells were incubated for 72–96 hr in standard ND96 solution (96 mM NaCl, 2 mM KCl, 1 mM MgCl2, 1.8 mM CaCl2, 5 mM HEPES; pH = 7.5) containing 1 mM pyruvate at 16°C prior to electrophysiological recordings.
Xenopus laevis oocytes were recorded in the two-electrode voltage clamp (TEVC) configuration. Recording pipettes were filled with 3 M KCl. The recording chamber was filled with ND96 (96 mM NaCl, 2 mM KCl, 1 mM MgCl2, 1.8 mM CaCl2, 5 mM HEPES; pH 7.5). For Cav1.2/β3/α2δ channel recordings, Xenopus oocytes were injected with 50 nl of 100 mM EGTA and incubated at 10°C for 30 min prior to electrophysiological recordings in order to sequester cytosolic calcium. In addition, Cav1.2/β3/α2δ channel recordings were done in Ca^2+-free solutions, using Ba^2+ as the charge carrier, to prevent calcium-dependent inactivation of Cav1.2/β3/α2δ channels. Calcium-dependent inactivation was not studied in this work, due to the presence of large calcium-activated chloride currents present in Xenopus laevis oocytes. PUFAs were obtained from Cayman Chemical (Ann Arbor, MI.) or synthesized in house (Linköping, Sweden) through methods previously described ([Bohannon et al., 2020]) and kept at −20 °C as 100 mM stock solutions in ethanol. […] PUFAs were perfused into the recording chamber using the Rainin Dynamax Peristaltic Pump (Model RP-1) (Rainin Instrument Co., Oakland, CA. USA).
(§2) Electrophysiological recordings were obtained using Clampex 10.3 software (Axon, pClamp, Molecular Devices). To measure Kv7.1/KCNE1 currents we apply PUFAs as the membrane potential is stepped every 30 s from −80 mV to 0 mV for 5 s before stepping to −40 mV and back to −80 mV to ensure that the PUFA effects on the current at 0 mV reached steady state. A voltage-step protocol was used to measure the current vs. voltage (I-V) relationship before PUFA application and after the PUFA effects had reached steady state for each concentration of PUFA. Cells were held at −80 mV followed by a hyperpolarizing prepulse to −140 mV. […]

Cav1.2/β3/α2δ = target: T2, Cav1.2/β3/α2δ (Homo sapiens, UniProt Q13936); experiment: Two-electrode voltage clamp of Cav1.2/β3/α2δ expressed in Xenopus oocytes (Ba2+ as charge carrier); details: for ICa I/I0: relative current at 0 mV
T2 construct: expressed in transfected cells; host or cells: Xenopus laevis oocytes (cRNA injection, Cav1.2:β3:α2δ 2:1:1 by weight)
T2 sequence (Q13936 1-2138 isoform Q13936-20): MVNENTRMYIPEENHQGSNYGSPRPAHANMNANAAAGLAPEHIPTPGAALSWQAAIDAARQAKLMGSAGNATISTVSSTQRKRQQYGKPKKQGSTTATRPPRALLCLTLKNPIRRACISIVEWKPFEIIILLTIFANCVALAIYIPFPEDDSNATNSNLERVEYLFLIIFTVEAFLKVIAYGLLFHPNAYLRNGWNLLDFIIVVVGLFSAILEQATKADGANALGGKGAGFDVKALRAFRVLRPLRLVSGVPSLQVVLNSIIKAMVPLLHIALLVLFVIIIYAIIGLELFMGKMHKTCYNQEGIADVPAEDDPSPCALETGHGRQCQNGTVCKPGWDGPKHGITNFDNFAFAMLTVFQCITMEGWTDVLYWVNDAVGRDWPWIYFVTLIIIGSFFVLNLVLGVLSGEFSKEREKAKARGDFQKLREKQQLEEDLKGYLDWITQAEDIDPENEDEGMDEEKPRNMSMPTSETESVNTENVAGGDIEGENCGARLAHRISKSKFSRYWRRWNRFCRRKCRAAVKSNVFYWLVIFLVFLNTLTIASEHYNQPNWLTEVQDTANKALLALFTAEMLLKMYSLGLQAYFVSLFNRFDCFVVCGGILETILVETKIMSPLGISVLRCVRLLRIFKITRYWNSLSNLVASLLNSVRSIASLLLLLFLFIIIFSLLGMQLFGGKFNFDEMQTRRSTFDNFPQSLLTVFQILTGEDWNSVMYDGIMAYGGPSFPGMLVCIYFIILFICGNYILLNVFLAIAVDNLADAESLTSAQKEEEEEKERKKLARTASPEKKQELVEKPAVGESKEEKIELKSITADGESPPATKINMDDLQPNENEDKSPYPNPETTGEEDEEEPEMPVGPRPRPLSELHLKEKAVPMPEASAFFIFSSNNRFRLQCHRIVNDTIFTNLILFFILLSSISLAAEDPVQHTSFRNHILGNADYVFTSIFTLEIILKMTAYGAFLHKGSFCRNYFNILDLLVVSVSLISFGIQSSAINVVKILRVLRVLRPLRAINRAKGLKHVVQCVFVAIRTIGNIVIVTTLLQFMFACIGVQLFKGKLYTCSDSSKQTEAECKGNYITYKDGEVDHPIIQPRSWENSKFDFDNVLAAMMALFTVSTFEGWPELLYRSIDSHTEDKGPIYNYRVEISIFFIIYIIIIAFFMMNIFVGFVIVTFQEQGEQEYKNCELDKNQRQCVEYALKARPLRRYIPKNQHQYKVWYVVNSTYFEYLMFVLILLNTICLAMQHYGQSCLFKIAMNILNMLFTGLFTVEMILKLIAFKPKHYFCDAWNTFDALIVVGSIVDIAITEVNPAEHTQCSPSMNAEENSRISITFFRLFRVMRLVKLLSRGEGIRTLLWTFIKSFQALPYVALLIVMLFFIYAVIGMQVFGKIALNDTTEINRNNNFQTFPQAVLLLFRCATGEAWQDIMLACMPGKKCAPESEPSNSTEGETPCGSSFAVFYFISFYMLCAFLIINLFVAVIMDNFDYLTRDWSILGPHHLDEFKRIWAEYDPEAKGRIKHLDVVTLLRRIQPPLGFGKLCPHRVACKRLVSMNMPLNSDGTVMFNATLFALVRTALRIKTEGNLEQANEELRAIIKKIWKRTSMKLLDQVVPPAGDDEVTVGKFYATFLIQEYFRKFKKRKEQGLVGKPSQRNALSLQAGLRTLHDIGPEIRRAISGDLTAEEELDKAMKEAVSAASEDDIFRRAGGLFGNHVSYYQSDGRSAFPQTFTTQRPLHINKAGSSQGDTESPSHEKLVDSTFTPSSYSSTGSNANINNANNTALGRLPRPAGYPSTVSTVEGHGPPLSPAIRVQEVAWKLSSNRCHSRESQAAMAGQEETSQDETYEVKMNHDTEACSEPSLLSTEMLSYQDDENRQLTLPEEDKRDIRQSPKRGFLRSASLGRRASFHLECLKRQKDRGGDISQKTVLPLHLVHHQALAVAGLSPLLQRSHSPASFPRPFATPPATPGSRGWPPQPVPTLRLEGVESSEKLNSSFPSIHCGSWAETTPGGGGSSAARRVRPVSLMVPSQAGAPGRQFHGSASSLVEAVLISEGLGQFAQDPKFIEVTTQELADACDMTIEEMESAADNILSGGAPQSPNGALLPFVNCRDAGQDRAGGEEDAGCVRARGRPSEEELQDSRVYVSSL
T2 sequence (P54286 whole entry partner): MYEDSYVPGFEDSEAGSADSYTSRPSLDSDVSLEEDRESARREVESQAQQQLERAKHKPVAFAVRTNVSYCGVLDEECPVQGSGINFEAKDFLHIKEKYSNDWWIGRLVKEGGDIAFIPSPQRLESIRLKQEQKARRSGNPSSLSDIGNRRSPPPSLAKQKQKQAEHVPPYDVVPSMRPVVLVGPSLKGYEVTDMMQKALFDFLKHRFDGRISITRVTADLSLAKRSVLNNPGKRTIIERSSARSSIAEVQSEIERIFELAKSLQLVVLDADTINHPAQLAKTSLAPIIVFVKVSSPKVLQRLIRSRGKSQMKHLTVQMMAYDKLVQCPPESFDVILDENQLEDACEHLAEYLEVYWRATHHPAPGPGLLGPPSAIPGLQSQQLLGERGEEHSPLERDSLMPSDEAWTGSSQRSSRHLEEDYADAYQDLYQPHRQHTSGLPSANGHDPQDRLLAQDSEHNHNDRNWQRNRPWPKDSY
T2 sequence (P13806 27-960 partner): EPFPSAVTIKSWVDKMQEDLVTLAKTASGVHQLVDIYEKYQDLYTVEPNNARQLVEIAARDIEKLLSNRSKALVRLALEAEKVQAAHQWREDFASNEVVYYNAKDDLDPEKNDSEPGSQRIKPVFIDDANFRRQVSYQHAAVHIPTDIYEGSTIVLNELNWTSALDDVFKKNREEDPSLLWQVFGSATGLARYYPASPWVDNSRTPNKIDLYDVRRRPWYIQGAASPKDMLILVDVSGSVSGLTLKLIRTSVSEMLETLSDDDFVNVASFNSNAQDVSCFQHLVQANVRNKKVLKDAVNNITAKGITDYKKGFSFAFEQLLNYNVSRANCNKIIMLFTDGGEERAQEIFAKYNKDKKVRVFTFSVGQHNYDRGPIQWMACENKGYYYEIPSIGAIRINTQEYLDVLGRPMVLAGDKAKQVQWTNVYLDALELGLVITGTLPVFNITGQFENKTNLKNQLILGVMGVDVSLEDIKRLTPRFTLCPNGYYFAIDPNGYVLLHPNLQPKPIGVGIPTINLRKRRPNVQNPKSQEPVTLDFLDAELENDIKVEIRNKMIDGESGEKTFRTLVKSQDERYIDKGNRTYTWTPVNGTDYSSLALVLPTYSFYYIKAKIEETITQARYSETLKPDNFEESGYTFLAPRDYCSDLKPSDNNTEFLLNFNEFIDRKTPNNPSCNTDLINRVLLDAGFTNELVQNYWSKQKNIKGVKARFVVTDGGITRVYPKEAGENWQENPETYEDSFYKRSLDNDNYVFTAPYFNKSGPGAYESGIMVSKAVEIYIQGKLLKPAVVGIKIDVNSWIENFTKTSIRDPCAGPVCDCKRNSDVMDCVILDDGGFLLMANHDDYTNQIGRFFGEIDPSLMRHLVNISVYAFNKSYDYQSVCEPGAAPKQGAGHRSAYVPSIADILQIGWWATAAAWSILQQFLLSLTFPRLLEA
T2 sequence (P13806 961-1106 partner): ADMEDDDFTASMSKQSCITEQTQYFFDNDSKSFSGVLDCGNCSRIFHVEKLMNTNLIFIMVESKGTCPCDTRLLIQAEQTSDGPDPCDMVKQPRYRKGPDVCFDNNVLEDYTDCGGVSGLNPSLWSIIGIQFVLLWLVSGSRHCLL
Protocol: as §1
(§3) Xenopus laevis oocytes were recorded in the two-electrode voltage clamp (TEVC) configuration. Recording pipettes were filled with 3 M KCl. The recording chamber was filled with ND96 (96 mM NaCl, 2 mM KCl, 1 mM MgCl2, 1.8 mM CaCl2, 5 mM HEPES; pH 7.5). For Cav1.2/β3/α2δ channel recordings, Xenopus oocytes were injected with 50 nl of 100 mM EGTA and incubated at 10°C for 30 min prior to electrophysiological recordings in order to sequester cytosolic calcium. In addition, Cav1.2/β3/α2δ channel recordings were done in Ca^2+-free solutions, using Ba^2+ as the charge carrier, to prevent calcium-dependent inactivation of Cav1.2/β3/α2δ channels. Calcium-dependent inactivation was not studied in this work, due to the presence of large calcium-activated chloride currents present in Xenopus laevis oocytes. PUFAs were obtained from Cayman Chemical (Ann Arbor, MI.) or synthesized in house (Linköping, Sweden) through methods previously described ([Bohannon et al., 2020]) and kept at −20 °C as 100 mM stock solutions in ethanol. Serial dilutions of the different PUFAs were prepared from stocks to make 0.2 μM, 0.7 μM, 2 μM, 7 μM, and 20 μM concentrations in ND96 solutions (pH = 7.5). PUFAs were perfused into the recording chamber using the Rainin Dynamax Peristaltic Pump (Model RP-1) (Rainin Instrument Co., Oakland, CA. USA).
as §2, with “PUFA.” for “PUFA. Cells were held at −80 mV followed by a hyperpolarizing prepulse to −140 mV.”

Nav1.5/β1 = target: T3, Nav1.5/β1 (Homo sapiens, UniProt Q14524); experiment: Two-electrode voltage clamp of Nav1.5/β1 expressed in Xenopus oocytes; details: for INa I/I0: relative current at 0 mV
T3 construct: Nav1.5 (UniProt: Q14524.1); expressed in transfected cells; host or cells: Xenopus laevis oocytes (cRNA injection, Nav1.5:β1 2:1 by weight)
Protocol: as §1, §3
as §2, with “PUFA.” for “PUFA. Cells were held at −80 mV followed by a hyperpolarizing prepulse to −140 mV.”

SMILES: CC/C=C\C/C=C\C/C=C\C/C=C\C/C=C\C/C=C\CCC(=O)NCCS(=O)(=O)O [DHA-taurine]
- Fitted slope factor of conductance vs voltage relationship (Kv7.1/KCNE1; 0.2 μM): 18.7 ± 1.1 mV
- Gmax/Gmax0 (Kv7.1/KCNE1; 0.2 μM): 1.1 ± 0.04
- ΔV0.5 (voltage dependence of activation) (Kv7.1/KCNE1; 0.2 μM): -1.5 ± 0.4 mV
- IKs I/I0 (Kv7.1/KCNE1; 0.2 μM): 1.1 ± 0.03
- Fitted slope factor of conductance vs voltage relationship (Kv7.1/KCNE1; 0.7 μM): 18.6 ± 1.2 mV
- Gmax/Gmax0 (Kv7.1/KCNE1; 0.7 μM): 1.3 ± 0.1
- ΔV0.5 (voltage dependence of activation) (Kv7.1/KCNE1; 0.7 μM): -5.0 ± 1.7 mV
- IKs I/I0 (Kv7.1/KCNE1; 0.7 μM): 1.4 ± 0.08
- Fitted slope factor of conductance vs voltage relationship (Kv7.1/KCNE1; 2 μM): 18.6 ± 1.3 mV
- Gmax/Gmax0 (Kv7.1/KCNE1; 2 μM): 1.6 ± 0.2
- ΔV0.5 (voltage dependence of activation) (Kv7.1/KCNE1; 2 μM): -17.5 ± 2.0 mV
- IKs I/I0 (Kv7.1/KCNE1; 2 μM): 2.9 ± 0.5
- Fitted slope factor of conductance vs voltage relationship (Kv7.1/KCNE1; 7 μM): 18.1 ± 1.2 mV
- Gmax/Gmax0 (Kv7.1/KCNE1; 7 μM): 1.7 ± 0.1
- ΔV0.5 (voltage dependence of activation) (Kv7.1/KCNE1; 7 μM): −45.3 ± 2.9 mV
- Gmax/Gmax0 (Kv7.1/KCNE1; 20 μM): 1.1 ± 0.9
- ΔV0.5 (voltage dependence of activation) (Kv7.1/KCNE1; 20 μM): -70.5 ± 6.0 mV
- IKs I/I0 (Kv7.1/KCNE1; 20 μM): 3.1 ± 0.4
- Gmax/Gmax0 (Cav1.2/β3/α2δ; 0.2 μM): 1.0 ± 0.05
- ΔV0.5 (voltage dependence of inactivation) (Cav1.2/β3/α2δ; 0.2 μM): 1.7 ± 0.7 mV
- ICa I/I0 (Cav1.2/β3/α2δ; 0.2 μM): 0.9 ± 0.04
- Gmax/Gmax0 (Cav1.2/β3/α2δ; 0.7 μM): 1.1 ± 0.1
- ΔV0.5 (voltage dependence of inactivation) (Cav1.2/β3/α2δ; 0.7 μM): 1.6 ± 0.8 mV
- ICa I/I0 (Cav1.2/β3/α2δ; 0.7 μM): 1.0 ± 0.03
- Gmax/Gmax0 (Cav1.2/β3/α2δ; 2 μM): 1.1 ± 0.07
- ΔV0.5 (voltage dependence of inactivation) (Cav1.2/β3/α2δ; 2 μM): 1.7 ± 1.0 mV
- ICa I/I0 (Cav1.2/β3/α2δ; 2 μM): 1.0 ± 0.03
- Gmax/Gmax0 (Cav1.2/β3/α2δ; 7 μM): 1.1 ± 0.1
- ΔV0.5 (voltage dependence of inactivation) (Cav1.2/β3/α2δ; 7 μM): 0.2 ± 0.8 mV
- Gmax/Gmax0 (Cav1.2/β3/α2δ; 20 μM): 0.8 ± 0.1
- ΔV0.5 (voltage dependence of inactivation) (Cav1.2/β3/α2δ; 20 μM): -3.8 ± 0.9 mV
- ICa I/I0 (Cav1.2/β3/α2δ; 20 μM): 0.7 ± 0.1
- Gmax/Gmax0 (Nav1.5/β1; 0.2 μM): 1.0 ± 0.01
- ΔV0.5 (voltage dependence of inactivation) (Nav1.5/β1; 0.2 μM): -0.5 ± 0.3 mV
- INa I/I0 (Nav1.5/β1; 0.2 μM): 1.0 ± 0.03
- Gmax/Gmax0 (Nav1.5/β1; 0.7 μM): 0.9 ± 0.01
- ΔV0.5 (voltage dependence of inactivation) (Nav1.5/β1; 0.7 μM): -2.6 ± 0.5 mV
- INa I/I0 (Nav1.5/β1; 0.7 μM): 1.0 ± 0.03
- Gmax/Gmax0 (Nav1.5/β1; 2 μM): 0.6 ± 0.03
- ΔV0.5 (voltage dependence of inactivation) (Nav1.5/β1; 2 μM): -9.4 ± 1.6 mV
- INa I/I0 (Nav1.5/β1; 2 μM): 0.7 ± 0.04
- Gmax/Gmax0 (Nav1.5/β1; 7 μM): 0.1 ± 0.01
- ΔV0.5 (voltage dependence of inactivation) (Nav1.5/β1; 7 μM): −28.5 ± 0.6 mV
- Gmax/Gmax0 (Nav1.5/β1; 20 μM): 0.04 ± 0.01
- ΔV0.5 (voltage dependence of inactivation) (Nav1.5/β1; 20 μM): -63.2 ± 10.9 mV
- INa I/I0 (Nav1.5/β1; 20 μM): 0.1 ± 0.03
